Experimental data: patent US7323469B2, “7H-pyrrolo[2,3-d]pyrimidine derivatives” (Novartis AG, priority 2001, dated 2008)

| melting point | SMILES |
| --- | --- |
| 272 to 274 °C | CN(C)Cc1ccc(-c2cc3c(Nc4ccc(OCc5ccccc5)cc4)ncnc3[nH]2)cc1 [Example 17, (4-Benzyloxy-phenyl)-[6-(4-dimethylaminomethyl-phenyl)-7H-pyrrolo[2,3-d]pyrimidin-4-yl]-amine] |
| 256 to 258 °C | c1ccc(COc2ccc(Nc3ncnc4[nH]c(-c5ccc(CN6CCCCC6)cc5)cc34)cc2)cc1 [Example 19, (4-Benzyloxy-phenyl)-[6-(4-piperidin-1-ylmethyl-phenyl)-7H-pyrrolo[2,3-d]pyrimidin-4-yl]-amine] |
| 272 to 274 °C | c1ccc(COc2ccc(Nc3ncnc4[nH]c(-c5ccc(CN6CCOCC6)cc5)cc34)cc2)cc1 [Example 20, (4-Benzyloxy-phenyl)-[6-(4-morpholin-4-ylmethyl-phenyl)-7H-pyrrolo[2,3-d]pyrimidin-4-yl]-amine] |
| 271 to 273 °C | CCN(CC)Cc1ccc(-c2cc3c(Nc4ccc(OCc5ccccc5)cc4)ncnc3[nH]2)cc1 [Example 21, (4-Benzyloxy-phenyl)-[6-(4-diethylaminomethyl-phenyl)-7H-pyrrolo[2,3-d]pyrimidin-4-yl]-amine] |
| 256 to 258 °C | CCN1CCN(Cc2ccc(-c3cc4c(Nc5ccc(OCc6ccccc6)cc5)ncnc4[nH]3)cc2)CC1 [Example 22, (4-Benzyloxy-phenyl)-{6-[4-(4-ethyl-piperazin-1-ylmethyl)-phenyl]-7H-pyrrolo[2,3-d]pyrimidin-4-yl}-amine] |
| 265 to 267 °C | c1ccc(COc2ccc(Nc3ncnc4[nH]c(-c5ccc(CN6CCCC6)cc5)cc34)cc2)cc1 [Example 23, (4-Benzyloxy-phenyl)-[6-(4-pyrrolidin-1-ylmethyl-phenyl)-7H-pyrrolo[2,3-d]pyrimidin-4-yl]-amine] |
| 269 to 271 °C | CC1CN(Cc2ccc(-c3cc4c(Nc5ccc(OCc6ccccc6)cc5)ncnc4[nH]3)cc2)CC(C)N1 (stereo not shown) [Example 24, (4-Benzyloxy-phenyl)-{6-[4-(3,5-dimethyl-piperazin-1-ylmethyl)-phenyl]-7H-pyrrolo[2,3-d]pyrimidin-4-yl}-amine] |
| 108 to 110 °C | C[C@@H](Nc1ncnc2[nH]c(-c3cccc(CN(C)C)c3)cc12)c1ccccc1 [Example 25, [6-(3-Dimethylaminomethyl-phenyl)-7H-pyrrolo[2,3-d]pyrimidin-4-yl]-((R)-1-phenyl-ethyl)-amine] |
| 128 to 130 °C | CCN1CCN(Cc2cccc(-c3cc4c(N[C@H](C)c5ccccc5)ncnc4[nH]3)c2)CC1 [Example 27, {6-[3-(4-Ethyl-piperazin-1-ylmethyl)-phenyl]-7H-pyrrolo[2,3-d]pyrimidin-4-yl}-((R)-1-phenyl-ethyl)-amine] |
| 90 to 92 °C | C[C@@H](Nc1ncnc2[nH]c(-c3cccc(CN4CCCC4)c3)cc12)c1ccccc1 [Example 28, ((R)-1-Phenyl-ethyl)-[6-(3-pyrrolidin-1-ylmethyl-phenyl)-7H-pyrrolo[2,3-d]pyrimidin-4-yl]-amine] |
| 112 to 115 °C | C[C@@H](Nc1ncnc2[nH]c(-c3cccc(CN4CCN(C)CC4)c3)cc12)c1ccccc1 [Example 29, {6-[3-(4-Methyl-piperazin-1-ylmethyl)-phenyl]-7H-pyrrolo[2,3-d]pyrimidin-4-yl}-((R)-1-phenyl-ethyl)-amine] |
| 108 to 110 °C | C[C@@H](Nc1ncnc2[nH]c(-c3cccc(CN4CCCCC4)c3)cc12)c1ccccc1 [Example 30, ((R)-1-Phenyl-ethyl)-[6-(3-piperidin-1-ylmethyl-phenyl)-7H-pyrrolo[2,3-d]pyrimidin-4-yl]-amine] |
| 242 to 243 °C | C[C@@H](Nc1ncnc2[nH]c(-c3cccc(CN4CCOCC4)c3)cc12)c1ccccc1 [Example 31, [6-(3-Morpholin-4-ylmethyl-phenyl)-7H-pyrrolo[2,3-d]pyrimidin-4-yl]-((R)-1-phenyl-ethyl)-amine] |
| 128 to 130 °C | CC1CN(Cc2cccc(-c3cc4c(N[C@H](C)c5ccccc5)ncnc4[nH]3)c2)CC(C)N1 (stereo partly drawn) [Example 32, {6-[3-(3,5-Dimethyl-piperazin-1-ylmethyl)-phenyl]-7H-pyrrolo[2,3-d]pyrimidin-4-yl}-((R)-1-phenyl-ethyl)-amine] |
| 218 to 220 °C | CN(C)Cc1cccc(-c2cc3c(Nc4ccc(F)c(Cl)c4)ncnc3[nH]2)c1 [Example 33, (3-Chloro-4-fluoro-phenyl)-[6-(3-dimethylaminomethyl-phenyl)-7H-pyrrolo[2,3-d]pyrimidin-4-yl]-amine] |
| 238 to 240 °C | CCN1CCN(Cc2cccc(-c3cc4c(Nc5ccc(F)c(Cl)c5)ncnc4[nH]3)c2)CC1 [Example 35, (3-Chloro-4-fluoro-phenyl)-{6-[3-(4-ethyl-piperazin-1-ylmethyl)-phenyl]-7H-pyrrolo[2,3-d]pyrimidin-4-yl}-amine] |
| 238 to 240 °C | Fc1ccc(Nc2ncnc3[nH]c(-c4cccc(CN5CCCC5)c4)cc23)cc1Cl [Example 36, (3-Chloro-4-fluoro-phenyl)-[6-(3-pyrrolidin-1-ylmethyl-phenyl)-7H-pyrrolo[2,3-d]pyrimidin-4-yl]-amine] |

| melting point | SMILES |
| --- | --- |
| 221 to 223 °C | CN1CCN(Cc2cccc(-c3cc4c(Nc5ccc(F)c(Cl)c5)ncnc4[nH]3)c2)CC1 [Example 37, (3-Chloro-4-fluoro-phenyl)-{6-[3-(4-methyl-piperazin-1-ylmethyl)-phenyl]-7H-pyrrolo[2,3-d]pyrimidin-4-yl}-amine] |
| 233 to 235 °C | Fc1ccc(Nc2ncnc3[nH]c(-c4cccc(CN5CCCCC5)c4)cc23)cc1Cl [Example 38, (3-Chloro-4-fluoro-phenyl)-[6-(3-piperidin-1-ylmethyl-phenyl)-7H-pyrrolo[2,3-d]pyrimidin-4-yl]-amine] |
| 290 to 292 °C | Fc1ccc(Nc2ncnc3[nH]c(-c4cccc(CN5CCOCC5)c4)cc23)cc1Cl [Example 39, (3-Chloro-4-fluoro-phenyl)-[6-(3-morpholin-4-ylmethyl-phenyl)-7H-pyrrolo[2,3-d]pyrimidin-4-yl]-amine] |
| 194 to 196 °C | C[C@@H](Nc1ncnc2[nH]c(-c3ccc(CNC(=O)CN4CCCCC4)cc3)cc12)c1ccccc1 [Example 40, N-{4-[4-((R)-1-Phenyl-ethylamino)-7H-pyrrolo[2,3-d]pyrimidin-6-yl]-benzyl}-2-piperidin-1-yl-acetamide] |
| 196 to 198 °C | C[C@@H](Nc1ncnc2[nH]c(-c3ccc(CNC(=O)CN4CCCC4)cc3)cc12)c1ccccc1 [Example 41, N-{4-[4-((R)-1-Phenyl-ethylamino)-7H-pyrrolo[2,3-d]pyrimidin-6-yl]-benzyl}-2-pyrrolidin-1-yl-acetamide] |
| 199 to 202 °C | C[C@@H](Nc1ncnc2[nH]c(-c3ccc(CNC(=O)CN4CCOCC4)cc3)cc12)c1ccccc1 [Example 42, 2-Morpholin-4-yl-N-{4-[4-((R)-1-phenyl-ethyl-amino)-7H-pyrrolo[2,3-d]pyrimidin-6-yl]-benzyl}-acetamide] |
| 263 to 266 °C | C[C@@H](Nc1ncnc2[nH]c(-c3ccc(CNC(=O)CN(C)C)cc3)cc12)c1ccccc1 [Example 44, 2-Dimethylamino-N-{4-[4-((R)-1-phenyl-ethyl-amino)-7H-pyrrolo[2,3-d]pyrimidin-6-yl]-benzyl}-acetamide] |
| 121 to 124 °C | CCN1CCN(CC(=O)NCc2ccc(-c3cc4c(N[C@H](C)c5ccccc5)ncnc4[nH]3)cc2)CC1 [Example 45, 2-(4-Ethyl-piperazin-1-yl)-N-{4-[4-((R)-1-phenyl-ethylamino)-7H-pyrrolo[2,3-d]pyrimidin-6-yl]-benzyl}-acetamide] |
| 278 to 282 °C | CN(C)CC(=O)NCc1ccc(-c2cc3c(Nc4ccc(F)c(Cl)c4)ncnc3[nH]2)cc1 [Example 46, N-{4-[4-(3-Chloro-4-fluoro-phenylamino)-7H-pyrrolo[2,3-d]pyrimidin-6-yl]-benzyl}-2-dimethylamino-acetamide] |
| 245 to 247 °C | CCN1CCN(CC(=O)NCc2ccc(-c3cc4c(Nc5ccc(F)c(Cl)c5)ncnc4[nH]3)cc2)CC1 [Example 47, N-{4-[4-(3-Chloro-4-fluoro-phenylamino)-7H-pyrrolo[2,3-d]pyrimidin-6-yl]-benzyl}-2-(4-ethyl-piperazin-1-yl)-acetamide] |
| 229 to 232 °C | O=C(CN1CCCCC1)NCc1ccc(-c2cc3c(Nc4ccc(F)c(Cl)c4)ncnc3[nH]2)cc1 [Example 49, N-{4-[4-(3-Chloro-4-fluoro-phenylamino)-7H-pyrrolo[2,3-d]pyrimidin-6-yl]-benzyl}-2-piperidin-1-yl-acetamide] |
| 246 to 249 °C | CN1CCN(CC(=O)NCc2ccc(-c3cc4c(Nc5ccc(F)c(Cl)c5)ncnc4[nH]3)cc2)CC1 [Example 50, N-{4-[4-(3-Chloro-4-fluoro-phenylamino)-7H-pyrrolo[2,3-d]pyrimidin-6-yl]-benzyl}-2-(4-methyl-piperazin-1-yl)-acetamide] |
| 233 to 235 °C | CN(C)CC(=O)NCc1ccc(-c2cc3c(Nc4ccc(OCc5ccccc5)cc4)ncnc3[nH]2)cc1 [Example 51, N-{4-[4-(4-Benzyloxy-phenylamino)-7H-pyrrolo[2,3-d]pyrimidin-6-yl]-benzyl}-2-dimethylamino-acetamide] |
| 246 to 248 °C | O=C(CN1CCCCC1)NCc1ccc(-c2cc3c(Nc4ccc(OCc5ccccc5)cc4)ncnc3[nH]2)cc1 [Example 53, N-{4-[4-(4-Benzyloxy-phenylamino)-7H-pyrrolo[2,3-d]pyrimidin-6-yl]-benzyl}-2-piperidin-1-yl-acetamide] |
| 140 °C | C[C@@H](Nc1ncnc2[nH]c(-c3ccc(CNC(=O)CCN4CCCCC4)cc3)cc12)c1ccccc1 [Example 54, N-{4-[4-((R)-1-Phenyl-ethylamino)-7H-pyrrolo[2,3-d]pyrimidin-6-yl]-benzyl}-3-piperidin-1-yl-propionamide] |
| 175 to 177 °C | CCN(CC)CCC(=O)NCc1ccc(-c2cc3c(N[C@H](C)c4ccccc4)ncnc3[nH]2)cc1 [Example 55, 3-Diethylamino-N-{4-[4-((R)-1-phenyl-ethyl-amino)-7H-pyrrolo[2,3-d]pyrimidin-6-yl]-benzyl}-propionamide] |
| 195 to 203 °C | C[C@@H](Nc1ncnc2[nH]c(-c3ccc(CNC(=O)CCCN(C)C)cc3)cc12)c1ccccc1 [Example 56, 4-Dimethylamino-N-{4-[4-((R)-1-phenyl-ethyl-amino)-7H-pyrrolo[2,3-d]pyrimidin-6-yl]-benzyl}-butyramide] |
